One molecule from patent US20160199434A1, “COMPOSITIONS AND METHODS FOR MODULATING DNA METHYLATION” (OHIO STATE INNOVATION FOUNDATION, priority 2013, published 2016) can be followed below.

“And” between values parts separate entries of the source, which are not always exact repeats. Equal entries are not always repeated. “Also recorded” adds a separate entry of the source.

Data set [1] has as its system DNMT-3b. In words: DNMT-3b mRNA level by RT-PCR in PyMT tumor cells. Type of data set: cell-based, mouse. To be noted: PyMT tumor cells in culture. As to the method:
Because DSP is regulated by ER/PR expression, and because late-stage PyMT tumors lose ER/PR-positivity and heavily metastasize to the lymph nodes and lungs (Lin et al., 2003), the effects of AKB-6899 on more global events that regulate gene expression was evaluated. PyMT tumor cells in culture were treated with DMSO or AKB-6899. Methylation-specific PCR for CpG islands in the desmoplakin promoter were performed. […] Trypan Blue confirmed no cell death in AKB-6899 treated cells when compared to control cells. The experiment was repeated and RNA was isolated from the cells. RT-PCR was performed and the regulation of DNA methyltransferases (DNMTs) was evaluated. […] (FIG. 1A). The decrease in mRNA levels of DNMT-1 and DNMT-3a increased the mRNA level of DSP (FIG. 4A) and increased desmoplakin protein expression (FIG. 5A).

The test system of a further data set is DNMT-1. The experiment in a line: DNMT-1 mRNA expression by RT-PCR in MDA-MB-231 tumor cells. As to conditions: 25 μM, 24 hours, compared to DMSO (FIG. 1B). Type of data set: cell-based, human. As to the method: FIGS. 1A-1E show DNA methyltransferase mRNA expression in vitro and in vivo. […] PyMT tumor cells were left untreated, were treated with DMSO, or were treated with AKB-6899 (10, 25, or 50 μM) for 24 hours. The cells were subjected to Trizol extraction to recover total RNA. cDNA was synthesized for RT-PCR of DNMT-1 and DNMT-3a mRNA expression. […] Human MDA-MB-231 tumor cells were left untreated, were treated with DMSO, or were treated with AKB-6899 (25 μM) for 24 hours. Total RNA was isolated for RT-PCR. FIG. 1C (DNMT-1), FIG. 1D (DNMT-3a), and FIG. 1E (DNMT-3b) compare the effect of AKB-6899 with the effect of 5-aza-2′deoxycytidine (5-AZA) as assessed by RT-PCR in human cervical tumors implanted in mice that were either untreated (UTX), treated with DMSO, treated with 5-AZA, or treated with AKB-6899 (17.5 mg/kg).
To determine whether the decrease in DNMT expression and the increase in DSP expression were relevant in human cancer, the level of desmoplakin expression in MDA-MB-231 human triple negative breast cancer cells was determined. […] (FIG. 3B).

The test system of the next data set is desmoplakin (DSP) mRNA. In words: Desmoplakin mRNA expression in PyMT tumors of tumor-bearing mice. It counts as in vivo, mouse. The source says:
FIGS. 4A-4B show desmoplakin mRNA expression in vitro and in vivo.
Desmoplakin (DSP) is the major protein component of the desmosome located in the inner membrane of epithelial cells where it binds desmosomal cadherins to maintain cell-to-cell adhesion. DSP is regulated by ER/PR expression (Maynadier et al. 2012; Ahmed et al., 1995; Pang et al., 2004). Clinically, expression of DSP is higher in normal mammary epithelium. Loss of DSP correlates with less differentiated breast tumors and increased lymph node involvement. […] Functional desmoplakin that is incorporated into the desmosome is not phosphorylated at serine 165/166. Phosphorylation at ser165/166 by protein kinase C (PKC) causes desmoplakin to disassemble from the desmosome. The loss of desmosome function and decreased adherence junctions are markers that can inform tumor staging, prognosis, and treatment planning as this transition eliminates therapeutic effectiveness and increases the likelihood of poor clinical outcome (Dusek et al., 2011). Further, loss of DSP is a marker in the Epithelial-to-Mesenchymal Transition (EMT) process as it binds to adherence proteins that also translocate to the nucleus and activate the Wnt/β-catenin pathway (Yang et al., 2012).
The gene expression signatures from the tumors of PyMT breast tumor-bearing mice that were treated with either vehicle or AKB-6899 were evaluated. […]

In data set [2] the test system is DNMT-3a. The experiment in a line: DNMT-3a transcription in H1703 lung cancer cells. Type of data set: cell-based, human. As to conditions: H1703 cells in vitro, dose-dependent (FIG. 10A). The text has this: (§1) In FIG. 10A, AKB-6899 inhibited DNMT-1, DNMT-3a, and DNMT-3b transcription in a dose-dependent manner in human squamous cell carcinoma lung cancer cells (H1703), in vitro. The DMSO-treated DNMT mRNAs are over 1.0, meaning the level of expression is higher than the housekeeping control gene, CAP1. In FIG. 10B, AKB-6899 inhibited DNMT-3a and DNMT-3b transcription in human adenocarcinoma lung cancer cells (A549). The DMSO-treated DNMT mRNAs are under 1.0, meaning the level of expression is lower than the housekeeping control gene, CAP1.

For data set [3], the system named is DNMT-3b. The experiment in a line: DNMT-3b transcription in H1703 lung cancer cells. Type of data set: cell-based, human. As to conditions: H1703 cells in vitro, dose-dependent (FIG. 10A).
From the text: as §1

The next data set concerns BEAS-2B cells. In words: XTT cell survival assay, normal lung epithelial cells. As to conditions: BEAS-2B normal lung epithelial cells, even at the highest dose (FIG. 13A). Type of data set: cell-based. The text has this: FIGS. 13A-13B show XTT cell survival assays for normal lung epithelial cells (BEAS-2B) and lung cancer cells (H1703 squamous cell carcinoma and A549 adenocarcinoma) in response to increasing doses of AKB-6899.
In general terms: Formazan colour is commonly taken as a measure of viable cells.

In data set [4] the test system is DNMT-3a. The experiment in a line: DNMT-3a mRNA expression in lungs of normal mice after systemic administration. Type of data set: in vivo, mouse. To be noted: i.p. 17.5 mg/kg three times per week for three weeks, vs DMSO. As to the method: (§2) FIGS. 14A-14C show the effects of systemic administration of AKB-6899. Mice were treated three times per week for three weeks with either i.p. AKB-6899 or i.p. DMSO. The lungs were removed and assayed to determine DNMT mRNA expression, percent CpG methylation, and fold change in mRNA. […] The data was standardized to 1.0 by the DMSO levels of the respective gene expression, (n=4 lungs per condition).

In a further data set the test system is DSP promoter. The experiment in a line: CpG methylation of DSP promoter in lungs of normal mice. It counts as in vivo, mouse. As to conditions: i.p., three weeks (FIG. 14B). The procedure:
as §2

Another data set deals with RASSF1 mRNA. The experiment in a line: RASSF1 mRNA expression in lungs of normal mice. To be noted: i.p., three weeks (FIG. 14C). Type of data set: in vivo, mouse. The procedure:
as §2

`O=C(O)CNC(=O)c1ncc(-c2cccc(F)c2)cc1O` [AKB-6899, {[5-(3-Fluorophenyl)-3-hydroxypyridine-2-carbonyl]amino}acetic acid]: the “DNMT-3b mRNA level” value with DNMT-3b [1] is “no difference”. For the same molecule, the “DNMT-1 mRNA expression” value with DNMT-1 is on record as “significantly decreased; also recorded: downregulated”. For the same molecule, in the data set on desmoplakin (DSP) mRNA (PyMT breast tumor-bearing mice, 17.5 mg/kg, vs DMSO/vehicle animals, 17.5 mg/kg), the “increase in DSP mRNA expression” value is ~118 fold and 118.5 fold. Moreover, the “desmoplakin expression from PyMT tumors (in words)” value in the data set on desmoplakin (DSP) mRNA (in vivo, compared to vehicle (FIG. 4B)) is “significantly increased”. Also, in the data set with DNMT-3a [2], the DNMT-3a transcription entry was “inhibited”. Moreover, the DNMT-3b transcription result in the data set on DNMT-3b [3] was “inhibited”. In addition, the cell survival entry with BEAS-2B cells is “no significant decrease”. Moreover, in the data set on DNMT-3a [4], the “DNMT-3a expression in lungs” value was “inhibited”. In addition, the “methylation of DSP promoter in lungs” value in the data set with DSP promoter is reported as “demethylated”. The “RASSF1 mRNA expression in lungs” value in the data set with RASSF1 mRNA is “increased”.
